Columns and labels:
[1] = test system: human normal melanocytes [ヒト正常メラノサイト]; assay: Detection of acidification in melanosomes (proton pump inhibition; DAMP fluorescence, confocal laser microscope); format: cell-based; details: Figure 2; for Colour of overlaid photograph (DAMP + tyrosinase): yellow = melanosome acidified
[2] = test system: human normal melanocytes [ヒト正常メラノサイト]; assay: Melanin production inhibition (2-[2-14C]thiouracil uptake, 4 days); format: cell-based; details: in words, from Table 1
tyrosinase [チロシナ−ゼ] [3] = biological target: T1, tyrosinase [チロシナ−ゼ] (Homo sapiens, UniProt P14679); details: known from patent literature; cited from earlier work
T1 sequence (P14679 19-529): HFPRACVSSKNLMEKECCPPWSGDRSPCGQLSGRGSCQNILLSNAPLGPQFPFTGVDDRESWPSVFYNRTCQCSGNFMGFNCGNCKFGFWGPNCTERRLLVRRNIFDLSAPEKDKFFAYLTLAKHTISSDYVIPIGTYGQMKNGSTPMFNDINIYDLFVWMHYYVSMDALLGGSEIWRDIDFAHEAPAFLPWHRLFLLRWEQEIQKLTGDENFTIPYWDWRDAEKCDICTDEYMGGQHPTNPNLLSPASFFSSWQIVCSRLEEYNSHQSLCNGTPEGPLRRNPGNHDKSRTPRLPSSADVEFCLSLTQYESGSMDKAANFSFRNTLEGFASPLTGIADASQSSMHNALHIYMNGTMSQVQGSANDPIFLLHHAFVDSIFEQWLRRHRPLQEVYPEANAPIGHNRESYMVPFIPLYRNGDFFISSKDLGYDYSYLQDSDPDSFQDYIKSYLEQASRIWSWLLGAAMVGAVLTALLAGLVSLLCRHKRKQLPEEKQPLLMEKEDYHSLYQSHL

tyrosinase [チロシナ−ゼ] [4] = biological target: T2, tyrosinase [チロシナ−ゼ] (Homo sapiens, UniProt P14679); assay: Direct tyrosinase inhibition (human melanocyte extract, L-DOPA substrate); format: biochemical; details: human normal melanocyte extract, 37℃, 15 min, in words, from Table 2
T2 construct: 溶解液を15000rpm、5分間遠心し、上清を回収し細胞抽出液とした; host or cells: normal human melanocytes (detergent lysate supernatant)

Colour of overlaid photograph (DAMP + tyrosinase) [1] | Red staining showing the presence of tyrosinase ([1]; versus untreated control) | Molecule | Melanin production inhibition compared with the positive control (hydroquinone) [2] | further results
黄色より幾分オレンジ色がかっている | – | Euchrenone a3 [化合物2] | 優れたメラニン産生抑制作用 | –
– | – | CCCCc1ccc(O)cc1O [4−n−ブチルレゾルシノ−ル] | – | Tyrosinase inhibitory activity (tyrosinase [チロシナ−ゼ] [3]): 強力なチロシナ−ゼ阻害活性
– | – | NC(=S)Nc1ccccc1 [フェニルチオウレア] | – | Direct tyrosinase inhibition (tyrosinase [チロシナ−ゼ] [4]): 顕著なチロシナ−ゼ直接阻害作用を示した
– | 同程度 | CC(C)=CCc1cc([C@@H]2CC(=O)c3c(O)c(CC=C(C)C)c(O)c(CC=C(C)C)c3O2)cc(O)c1O [化合物3, amorisin] | 陽性対照と同等乃至はそれ以上のメラニン産生抑制作用 | –
黄色を呈している | コントロ−ルと同程度 | Euchrenone a6 [化合物1] | 優れたメラニン産生抑制作用 | Green staining showing the degree of acidification (DAMP) ([1]; versus untreated control): 濃くなっており
– | – | Oc1ccc(O)cc1 [ハイドロキノン, reference compound] | – | Melanin production inhibition [2]: 優れたメラニン産生抑制作用

Reference: patent JP2010202587A, “プロトンポンプ阻害剤を含有する組成物” (Pola Chemical Industries Inc, priority 2009, dated 2010)
